Here are results for three compounds from patent US20130102829A1, “METHOD FOR TREATING OSTEOSARCOMA BY BORON NEUTRON CAPTURE THERAPY USING BORIC ACID AS A BORON DRUG” (National Tsing Hua University, priority 2011, published 2013).

Read-outs that look alike come from different tables or passages of the source.

One series relates to brain tumors. Conditions: 1950s; cited from earlier work.
For series [1] the following is noted: 60 mg of ^10B stable isotope per kilogram of human body weight; cited from earlier work.
A further series has as its system UMR-106 osteosarcoma. The protocol: (§1) Male SD rats were the animals used in this osteosarcoma-bearing animal-model. Prior to the experiments, the rats were bred in cage for at least one week at temperature of 22° C. and humidity of 30-70%. An artificial lighting condition (12 h on/12 h off) was maintained in the room. The animal feeds and water were unlimited. The tumor cells used in the experiments were UMR-106 cell strain (Rat osteogenic sarcoma cell line, BCRC No: 60270). Firstly, obtained the UMR-106 tumor cells in exponential growth phase from a culture flask, then centrifuged the UMR-106 cells obtained by subculture method, followed by re-suspending the cells in a media without serum or antibiotics, and dividing the suspension into separate centrifuge microtubes. Placed the Matrigel Matrix (BD Bioscience), a syringe, and the centrifuge microtubes with the cell suspension on ice to be cooled for later use. Before implanting the tumor cells, the UMR-106 cell suspension was mixed with an equal amount of Matrigel first.
A SD rat was firstly anesthetized by using 2.5% Isoflurane (Halocarbon Laboratories, River Edge, N.J.), followed by shaving and disinfecting a surgical area on the rat for implanting the tumor cells. A 250 μL micro-syringe was fitted with a 25 gauge needle before extracting 200 μL of a mixed solution containing the cells and Matrigel (10×10^6 cells/200 μL). Then the needle was used to penetrate a SD rat's distal femur, which is the femoral condyle; the syringe was rotated in order to penetrate the femur and the spongy bone, and ensured it had protruded out of the femur by touching with a finger. Subsequently, 100 μL of the tumor cell solution was slowly injected into the extra-skeletal muscular tissues, and 100 μL of the solution was injected into the epiphysis and the metaphysis of the femur (at 0.5 cm deep from skin surface) after slowly retracting the needle. After the implantation, the rats were released back into the cage, and their activities and body conditions were monitored continuously. The animals were immunosuppressed by daily administration of cyclosporin A (10 mg/kg, Sandimmun®, Novartis) for total 7 days from the 3rd to the 9th day after UMR-106 cells injection.
(§2) The experimental animals were divided into three groups; a tumor control group (in which the rats received implantation of tumor cells but not BNCT treatment), a high-dose BNCT group, and a low-dose BNCT group.
After the SD rats were implanted with tumor cells for 11 days, the BNCT treatment and subsequent evaluation of biological effects were commenced. Considering the pharmacokinetics and the changes in boron concentration distribution in the rats after the drug administration, BNCT irradiation was carried out at adequate times after administering boric acid. The rats were anesthetized by gas, then intravenously injected with a boric acid of 25 mg ^10B/kg BW. Fifteen minutes before the neutron irradiation, the rats were injected with Atropine and Zoletil to allow the rats to be anesthetized longer. Each of the rats was placed on a fixing frame with its tumor-bearing area close to the beam aperture of the Tsing Hua Open-pool Reactor (THOR), and then neutron irradiation was performed at a specific neutron flux and irradiation time to achieve a certain total neutron fluence. For the reactor power at 1.2 MW, the neutron fluxes at the central beam exit were 1.34×10^8, 1.07×10^9, and 7.66×10^7 n/cm^2/sec, respectively for thermal, epithermal, and fast neutrons. [Liu, Y. H., Tsai, P. E., Liu, H. M., Jiang, S. H., “Characterization of a BNCT beam using neutron activation and indirect neutron radiography,” Radiation Measurements, vol. 45, pp. 1167-1170, 2010.] After the irradiation, the actual irradiation time and reactor power were adjusted by using the on-line neutron monitoring system for THOR.

The conditions of series [2]: in vivo; cited from earlier work.
For series [3] the following is noted: rat, in vivo. Here is the method:
Before measuring boron concentration of a sample, it needs to undergo microwave digestion first. A sample was initially placed into a Teflon high-pressure digestion vessel, then added with 3 mL of concentrated nitric acid (14N, 65%) and 0.5 mL of hydrogen peroxide (30-35%), and the vessel was sealed before placing the vessel into a microwave digestion system (MLS 1200 Milestone, Italia) for sample decomposition. […] The sample subsequently turned into a clear solution after complete digestion. After diluting the sample with deionized water, an Inductively Coupled Plasma Atomic Emission Spectrometer (ICP-AES, OPTIMA 2000 DV, PerkinElmer Instruments) was used to measure the boron concentration of the sample. For the conditions of the analysis, the temperature of argon plasma was set at 6000-7000 K; the analytical wavelength was set at 249.773 nm, and the liquid uptake rate was set at approximately 2 mL/min; the operating voltage after the formation of plasma was set at 40 V.
as §1
A SD rat was firstly anesthetized by using 2.5% Isoflurane (Halocarbon Laboratories, River Edge, N.J.), followed by shaving and disinfecting a surgical area on the rat for implanting the tumor cells. […] After the implantation, the rats were released back into the cage, and their activities and body conditions were monitored continuously. […]
Using the boric acid aqueous solution as a boron drug to do the animal experiments, drugs were administered to the osteosarcoma-bearing rats (six-week old, approximately 200-250 g in body weight) via tail vein injection, and the dose of the boric acid drugs was: 25 mg ^10B/kg BW. The rats' body weights needed to be measured and recorded before the experiments for preparing the boric acid aqueous solution. […]

For series [4] the following is noted: rat, in vivo.
Text: as §2
After the SD rats were implanted with tumor cells for 11 days, the BNCT treatment and subsequent evaluation of biological effects were commenced. Considering the pharmacokinetics and the changes in boron concentration distribution in the rats after the drug administration, BNCT irradiation was carried out at adequate times after administering boric acid. The rats were anesthetized by gas, then intravenously injected with a boric acid of 25 mg ^10B/kg BW. Fifteen minutes before the neutron irradiation, the rats were injected with Atropine and Zoletil to allow the rats to be anesthetized longer. […]
Boric acid (25 mg 10B/kg) were injected into the tumor-bearing rats via the tail vein before the irradiation. […] Consequently, the doses received in each of the organs were calculated according to the actual irradiation times and powers, along with simulations of dose rates in the rats' organs from the MCNP application. […]
This is another data set of the same source.

For series [5] the following is noted: in vivo and in vitro studies; binding to the cis-hydroxy groups; cited from earlier work.
The conditions of series [6]: oral administration of BA to rats or human; cited from earlier work.
The next series concerns Glioblastoma multiforme. Particulars: in vivo; cited from earlier work.

For the compound `O=BOB(O)OB(O)OB=O` [Borax, sodium borate], in the series with brain tumors, the “outcome of BNCT clinical trials” value was “unsuccessful”.
Turning to `OB(O)O` [boric acid], the “adverse effect of an injection dose of boric acid” value in series [1] was “no permanent adverse effect”. Further, in the series with UMR-106 osteosarcoma (80th day after BNCT, hematoxylin and eosin stain), the “histopathological finding of extra-skeletal tumor region” value is “no-viable tumor cells were found”. Besides, in the series with UMR-106 osteosarcoma (80th day after the irradiation), the “reduction of the sizes of the tumors” value is listed as around 90%. Moreover, in the series on UMR-106 osteosarcoma (high dose day 5 to 16, low dose day 5 to 23 after BNCT), the “bone healing on radiographs” value was “the bone appeared to be healing gradually”. For the same compound, the relative tumor area came out at 1.1 in the series with UMR-106 osteosarcoma (high-dose BNCT group (11.0 Gy), 5th day after BNCT, area divided by area on day of BNCT); 0.7 in the series on UMR-106 osteosarcoma (high-dose BNCT group, 10th day after BNCT); 0.2 with UMR-106 osteosarcoma (high-dose BNCT group, 30th day after BNCT); 0.2 in the series with UMR-106 osteosarcoma (high-dose BNCT group, 60th day after BNCT); 0.1 with UMR-106 osteosarcoma (high-dose BNCT group, 80th day after BNCT); 1.3 in the series on UMR-106 osteosarcoma (low-dose BNCT group (5.8 Gy), 5th day after BNCT). The relative tumor area in the series with UMR-106 osteosarcoma (low-dose BNCT group, 10th day after BNCT) turned out to be 1.1; with UMR-106 osteosarcoma (low-dose BNCT group, 30th day after BNCT), 0.3; with UMR-106 osteosarcoma (low-dose BNCT group, 60th day after BNCT), 0.2; with UMR-106 osteosarcoma (low-dose BNCT group, 80th day after BNCT), 0.2. Also, the “ratio of boron concentrations in blood and soft tissue” value in series [2] is “one”. Also, in series [3] (male, Sprague-Dawley, 1 h), the “boron concentration of extra-skeletal tumor tissues relative to blood” value is recorded as “approximately 1.2 times”. Further, the “boron concentration of tumor-bearing distal femurs relative to blood” value in series [3] (male, Sprague-Dawley, 1 h) was “approximately 2.1 times”. For the same compound, the “boron concentration of tumor-bearing proximal femurs relative to blood” value in [3] (male, Sprague-Dawley, 1 h) is recorded as “approximately 2.6 times”. In addition, the “boron concentrations in the soft tissues compared with blood” value in series [3] was “similar”. Moreover, in series [4], the “gastro-intestinal reactions, weight loss and other discomfort after the irradiation” value was “temporary side-effects”. Further, the “affinity with hydroxyapatite of bone” value in [5] is reported as “strong affinity”. In series [6], the “factor by which boron concentrations in bones exceeded those in blood” value is given as 4.
As for borocaptate sodium [BSH], the “ratio of boron concentrations between tumors and normal tissues” value with Glioblastoma multiforme is given as “does not result in higher ratio”.
